Drawing on ChEMBL document CHEMBL5465560, “Selectivity Literature for EUbOPEN Chemogenomic Library” (2024), this text covers % of control and dTM for seven compounds.

Each structure is given as a SMILES string.

In test [1] the target is Tyrosine-protein kinase Lyn (Homo sapiens, UniProt P07948). Kind of test: Selectivity interaction (KinomeScan (DiscoverX)) EUB0000666a LYN. The note with it: at 10 µM.
Test [2] addresses T1, Serine/threonine-protein kinase TAO2 (Homo sapiens) (UniProt Q9UL54).
T1 sequence (whole entry): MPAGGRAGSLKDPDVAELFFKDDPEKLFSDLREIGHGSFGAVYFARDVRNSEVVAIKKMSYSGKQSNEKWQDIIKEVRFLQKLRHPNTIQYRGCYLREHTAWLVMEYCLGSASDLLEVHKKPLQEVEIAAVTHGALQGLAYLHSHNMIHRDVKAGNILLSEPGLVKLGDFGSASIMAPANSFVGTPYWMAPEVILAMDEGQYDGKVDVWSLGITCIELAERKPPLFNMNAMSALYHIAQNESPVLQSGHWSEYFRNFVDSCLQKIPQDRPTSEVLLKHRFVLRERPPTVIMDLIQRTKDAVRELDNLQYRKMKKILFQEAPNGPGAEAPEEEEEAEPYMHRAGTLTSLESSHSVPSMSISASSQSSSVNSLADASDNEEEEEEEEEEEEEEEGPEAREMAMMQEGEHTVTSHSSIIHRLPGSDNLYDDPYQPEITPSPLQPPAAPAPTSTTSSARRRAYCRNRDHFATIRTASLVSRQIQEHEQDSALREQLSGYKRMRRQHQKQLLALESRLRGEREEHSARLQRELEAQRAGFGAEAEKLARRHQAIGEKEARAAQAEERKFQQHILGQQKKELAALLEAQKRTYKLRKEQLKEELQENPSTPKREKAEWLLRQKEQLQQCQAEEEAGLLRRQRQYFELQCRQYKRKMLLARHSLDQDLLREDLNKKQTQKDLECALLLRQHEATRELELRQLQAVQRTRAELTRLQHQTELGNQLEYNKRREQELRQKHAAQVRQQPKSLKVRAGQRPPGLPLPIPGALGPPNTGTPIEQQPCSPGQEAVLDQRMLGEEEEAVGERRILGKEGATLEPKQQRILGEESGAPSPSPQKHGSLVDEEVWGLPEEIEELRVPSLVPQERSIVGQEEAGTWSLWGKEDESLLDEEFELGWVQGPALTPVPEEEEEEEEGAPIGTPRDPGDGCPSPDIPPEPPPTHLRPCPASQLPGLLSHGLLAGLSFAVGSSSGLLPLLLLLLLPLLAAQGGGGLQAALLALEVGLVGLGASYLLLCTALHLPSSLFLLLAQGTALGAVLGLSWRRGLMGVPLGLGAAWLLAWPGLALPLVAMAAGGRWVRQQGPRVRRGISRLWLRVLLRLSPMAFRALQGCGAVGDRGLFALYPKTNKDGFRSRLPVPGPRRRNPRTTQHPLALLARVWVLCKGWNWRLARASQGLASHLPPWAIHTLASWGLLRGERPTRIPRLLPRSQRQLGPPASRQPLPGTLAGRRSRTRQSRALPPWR
Kind of test: Selectivity interaction (KinomeScan (DiscoverX)) EUB0001079a TAOK2. The note with it: at 1 µM.

Test [3] deals with Calcium/calmodulin-dependent protein kinase kinase 1 (Homo sapiens) (UniProt Q8N5S9). To be noted: at 10 µM.
Calcium/calmodulin-dependent protein kinase kinase 1 (Homo sapiens), sequence (Q8N5S9 whole entry, looked up): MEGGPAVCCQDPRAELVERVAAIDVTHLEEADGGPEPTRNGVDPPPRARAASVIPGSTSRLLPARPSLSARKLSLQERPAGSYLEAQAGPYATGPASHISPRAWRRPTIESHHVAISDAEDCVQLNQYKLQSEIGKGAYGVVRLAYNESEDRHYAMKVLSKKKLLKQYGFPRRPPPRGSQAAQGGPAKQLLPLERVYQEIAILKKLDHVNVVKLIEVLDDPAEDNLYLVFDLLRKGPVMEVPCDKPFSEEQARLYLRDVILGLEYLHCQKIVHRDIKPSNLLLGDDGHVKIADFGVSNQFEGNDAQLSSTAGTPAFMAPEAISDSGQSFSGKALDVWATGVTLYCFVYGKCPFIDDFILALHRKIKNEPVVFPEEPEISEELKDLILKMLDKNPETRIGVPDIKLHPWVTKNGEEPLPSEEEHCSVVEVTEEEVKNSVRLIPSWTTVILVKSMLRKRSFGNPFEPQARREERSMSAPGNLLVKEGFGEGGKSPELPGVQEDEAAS
The target in test [4] is T2, Serine/threonine-protein kinase DCLK3 (Homo sapiens) (UniProt Q9C098).
T2 sequence (whole entry): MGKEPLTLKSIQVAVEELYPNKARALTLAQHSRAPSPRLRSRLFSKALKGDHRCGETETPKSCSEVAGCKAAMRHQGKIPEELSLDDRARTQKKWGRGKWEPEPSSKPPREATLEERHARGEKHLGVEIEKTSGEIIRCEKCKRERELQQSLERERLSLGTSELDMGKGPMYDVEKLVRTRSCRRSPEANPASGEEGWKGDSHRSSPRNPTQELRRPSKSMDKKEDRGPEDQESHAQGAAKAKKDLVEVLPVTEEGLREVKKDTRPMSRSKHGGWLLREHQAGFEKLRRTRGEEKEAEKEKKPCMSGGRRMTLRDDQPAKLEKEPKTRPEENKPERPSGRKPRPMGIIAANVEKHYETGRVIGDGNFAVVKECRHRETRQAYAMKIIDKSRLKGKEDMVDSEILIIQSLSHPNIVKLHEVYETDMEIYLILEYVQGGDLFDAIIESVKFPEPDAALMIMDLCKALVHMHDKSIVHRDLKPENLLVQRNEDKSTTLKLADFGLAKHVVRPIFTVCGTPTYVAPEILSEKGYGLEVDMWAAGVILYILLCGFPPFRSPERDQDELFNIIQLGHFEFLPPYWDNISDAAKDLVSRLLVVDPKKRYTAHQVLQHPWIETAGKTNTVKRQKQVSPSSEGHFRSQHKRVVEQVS
To be noted: at 10 µM.

Test [5] concerns the target T3, Testis-specific serine/threonine-protein kinase 3 (Homo sapiens) (UniProt Q96PN8).
T3 sequence (whole entry): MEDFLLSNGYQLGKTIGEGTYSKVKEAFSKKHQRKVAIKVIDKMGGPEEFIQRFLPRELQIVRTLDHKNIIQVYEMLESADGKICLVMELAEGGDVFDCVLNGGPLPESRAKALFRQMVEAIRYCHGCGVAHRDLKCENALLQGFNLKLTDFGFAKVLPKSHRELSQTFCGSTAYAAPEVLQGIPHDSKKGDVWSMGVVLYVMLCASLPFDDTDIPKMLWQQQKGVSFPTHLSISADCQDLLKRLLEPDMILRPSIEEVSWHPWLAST
Kind of test: Selectivity interaction (KinomeScan (DiscoverX)) EUB0000695a TSSK3. The note with it: at 100 nM.

Test [6] has as its target SWI/SNF-related matrix-associated actin-dependent regulator of chromatin subfamily A member 2 (Homo sapiens, UniProt P51531). The test can be described thus: Selectivity interaction (Bromodomain panel (DSF asssay)) EUB0000270b SMARCA2.
Test [7] concerns the target T4, Calcium/calmodulin-dependent protein kinase type IV (Homo sapiens) (UniProt Q16566).
T4 sequence (whole entry): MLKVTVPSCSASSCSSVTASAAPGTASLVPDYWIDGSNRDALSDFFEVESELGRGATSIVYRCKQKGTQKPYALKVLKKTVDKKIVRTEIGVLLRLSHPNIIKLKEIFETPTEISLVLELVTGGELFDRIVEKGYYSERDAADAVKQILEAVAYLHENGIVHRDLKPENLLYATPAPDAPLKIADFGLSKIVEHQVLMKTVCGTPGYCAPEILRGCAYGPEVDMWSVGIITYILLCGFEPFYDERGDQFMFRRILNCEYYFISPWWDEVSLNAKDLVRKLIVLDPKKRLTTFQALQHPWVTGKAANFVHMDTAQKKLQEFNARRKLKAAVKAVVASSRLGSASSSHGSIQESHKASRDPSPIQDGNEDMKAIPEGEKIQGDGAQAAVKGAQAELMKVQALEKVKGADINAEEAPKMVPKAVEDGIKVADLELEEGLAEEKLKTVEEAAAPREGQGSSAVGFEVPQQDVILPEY
Kind of test: Selectivity interaction (KinomeScan (DiscoverX)) EUB0000092b CAMK4. The note with it: at 10 µM.

The target in test [8] is Casein kinase I isoform alpha (Homo sapiens, UniProt P48729). The test can be described thus: Selectivity interaction (KinomeScan (DiscoverX)) EUB0000618a CSNK1A1. The note with it: at 10 µM.
Casein kinase I isoform alpha, sequence (P48729 2-337 limits assumed): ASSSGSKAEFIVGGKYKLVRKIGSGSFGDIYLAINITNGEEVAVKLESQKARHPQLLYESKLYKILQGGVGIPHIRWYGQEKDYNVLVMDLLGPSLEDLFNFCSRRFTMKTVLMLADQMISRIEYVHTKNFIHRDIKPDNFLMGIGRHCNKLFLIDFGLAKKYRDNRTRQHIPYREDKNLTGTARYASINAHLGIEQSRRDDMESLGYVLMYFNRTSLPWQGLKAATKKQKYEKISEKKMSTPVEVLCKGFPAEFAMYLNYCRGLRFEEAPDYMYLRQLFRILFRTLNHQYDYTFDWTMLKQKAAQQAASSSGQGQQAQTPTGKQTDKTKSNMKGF

Tyrosine-protein kinase Lyn, sequence (P07948 2-512 limits assumed): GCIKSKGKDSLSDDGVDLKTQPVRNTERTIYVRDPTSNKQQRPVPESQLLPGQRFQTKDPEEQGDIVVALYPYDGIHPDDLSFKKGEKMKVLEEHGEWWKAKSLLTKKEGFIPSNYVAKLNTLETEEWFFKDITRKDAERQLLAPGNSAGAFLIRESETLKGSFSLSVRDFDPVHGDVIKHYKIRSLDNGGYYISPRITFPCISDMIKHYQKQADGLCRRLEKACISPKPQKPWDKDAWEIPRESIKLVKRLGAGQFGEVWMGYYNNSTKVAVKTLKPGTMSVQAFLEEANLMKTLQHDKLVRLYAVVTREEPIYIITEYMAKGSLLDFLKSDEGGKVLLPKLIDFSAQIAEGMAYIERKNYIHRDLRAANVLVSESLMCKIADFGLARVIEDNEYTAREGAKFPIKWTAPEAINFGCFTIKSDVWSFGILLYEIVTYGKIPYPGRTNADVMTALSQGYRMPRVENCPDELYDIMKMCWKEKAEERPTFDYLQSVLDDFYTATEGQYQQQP
SWI/SNF-related matrix-associated actin-dependent regulator of chromatin subfamily A member 2, sequence (P51531 whole entry): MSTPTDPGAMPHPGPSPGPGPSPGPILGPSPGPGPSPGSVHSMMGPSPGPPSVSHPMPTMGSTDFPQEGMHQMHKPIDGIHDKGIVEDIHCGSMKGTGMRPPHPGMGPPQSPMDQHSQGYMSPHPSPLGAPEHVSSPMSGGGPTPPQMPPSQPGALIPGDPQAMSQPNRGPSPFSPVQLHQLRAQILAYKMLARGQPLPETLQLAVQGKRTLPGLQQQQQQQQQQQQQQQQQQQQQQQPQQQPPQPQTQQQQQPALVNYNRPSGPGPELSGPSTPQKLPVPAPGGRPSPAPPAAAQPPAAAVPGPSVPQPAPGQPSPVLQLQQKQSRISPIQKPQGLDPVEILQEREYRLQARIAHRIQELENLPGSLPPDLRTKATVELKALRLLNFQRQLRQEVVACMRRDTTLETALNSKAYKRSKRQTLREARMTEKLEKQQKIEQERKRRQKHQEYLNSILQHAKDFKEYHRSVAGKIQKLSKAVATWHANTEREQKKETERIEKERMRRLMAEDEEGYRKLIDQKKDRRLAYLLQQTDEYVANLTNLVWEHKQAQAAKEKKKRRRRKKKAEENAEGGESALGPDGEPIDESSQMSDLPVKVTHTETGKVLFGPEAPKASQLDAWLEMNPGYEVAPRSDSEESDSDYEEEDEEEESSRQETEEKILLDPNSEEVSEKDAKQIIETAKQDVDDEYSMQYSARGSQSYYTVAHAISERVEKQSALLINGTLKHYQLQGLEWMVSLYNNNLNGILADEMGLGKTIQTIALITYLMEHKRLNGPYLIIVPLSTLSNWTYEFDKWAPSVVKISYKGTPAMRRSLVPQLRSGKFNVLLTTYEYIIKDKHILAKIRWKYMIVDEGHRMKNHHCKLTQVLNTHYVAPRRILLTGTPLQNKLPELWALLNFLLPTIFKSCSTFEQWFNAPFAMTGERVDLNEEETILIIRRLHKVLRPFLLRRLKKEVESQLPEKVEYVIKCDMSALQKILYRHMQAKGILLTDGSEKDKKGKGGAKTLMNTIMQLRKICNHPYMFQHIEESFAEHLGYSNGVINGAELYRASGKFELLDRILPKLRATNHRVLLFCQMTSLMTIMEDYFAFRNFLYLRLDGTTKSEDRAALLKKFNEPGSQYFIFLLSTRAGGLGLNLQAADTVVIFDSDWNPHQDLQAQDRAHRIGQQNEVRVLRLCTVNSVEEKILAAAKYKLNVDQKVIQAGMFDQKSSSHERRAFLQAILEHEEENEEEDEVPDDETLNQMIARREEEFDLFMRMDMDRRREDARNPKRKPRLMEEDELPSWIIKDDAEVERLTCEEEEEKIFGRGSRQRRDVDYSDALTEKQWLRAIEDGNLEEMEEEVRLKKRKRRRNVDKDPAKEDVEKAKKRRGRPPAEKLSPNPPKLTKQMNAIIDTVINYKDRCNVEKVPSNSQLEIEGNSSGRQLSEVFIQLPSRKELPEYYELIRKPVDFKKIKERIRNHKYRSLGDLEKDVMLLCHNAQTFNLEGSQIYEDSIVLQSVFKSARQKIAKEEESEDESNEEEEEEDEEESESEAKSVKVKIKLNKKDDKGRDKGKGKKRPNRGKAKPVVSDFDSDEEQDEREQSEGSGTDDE

For the compound `O=C(NOC[C@H](O)CO)c1ccc(F)c(F)c1Nc1ccc(I)cc1F`, the % of control in test [1] was found to be 72%. Consider `Nc1cnc(N2CCc3cc(S(=O)(=O)Nc4c(F)cc(Cl)cc4F)cc(N4CCCC4=O)c32)nc1` [TP-020n], for which, in test [2], the % of control turned out to be 78%.

As for `CCN(CC)CCCCNc1ncc2cc(-c3cc(OC)cc(OC)c3)c(NC(=O)NC(C)(C)C)nc2n1`, the % of control in test [3] and in test [4] was 100% each time. `Cc1cc(F)c(C(=O)Nc2cccc(-c3nncn3C(C)C)n2)cc1-n1cnc(C2CC2)c1` had a % of control in test [5] of 57%.

Take `Cc1cc(CN)cc(C)c1-c1ncn(C)c1-c1cncn1C`: in test [6], the dTM was -0.5 K. In the case of `CCC(=O)N1CCN(c2ccc(-n3c(=O)ccc4cnc5ccc(-c6cnc7ccccc7c6)cc5c43)cc2C(F)(F)F)CC1`, the % of control in test [7] was found to be 90%.

`O[C@H]1CC[C@H](Nc2ncc3nc(Nc4c(F)cc(F)cc4F)n([C@H]4CCOC4)c3n2)CC1` showed a % of control in test [8] of 100%.
